In patent publication US12448400B2, “KRAS G12D modulating compounds” (priority 2023, dated 2025):

Experiments:
[1] = Mouse oral cassette pharmacokinetics; type: in vivo, male CD-1 mice; settings: male, CD-1, mouse, in vivo, po, 30 mg/kg
Experimental: Mouse Oral Cassette Pharmacokinetics
Test compounds (1-3 compounds per cassette) were formulated in solution formulations (10 w/v % Captisol in 50 mM Citrate buffer) and administered orally at 30 mg-eq./kg each compound to a group of four male CD-1 mice. The test articles were administrated by oral gavage at a dose volume of 10 mL-eq/kg.
Blood samples were collected at 0.5, 1, 3, 6, 8, and 24 hours post dose into K2EDTA tubes and stored on wet ice until processed. Whole blood was processed to plasma by centrifugation (3500 rpm for 10 minutes at 5° C.) within 30 minutes of collection. Plasma samples were placed in Micronic 96 well tubes and stored at −80° C. until transferred. Plasma concentration of the test compounds was determined by LC-MS/MS. Pharmacokinetic parameters were estimated using non-compartment model analysis. The maximum observed concentration (Cmax) and area under the curve from time of dosing to last measured concentration (AUClast) were calculated and reported.

GDP-loaded KRAS G12D = GDP-loaded KRAS G12D (Homo sapiens, UniProt P01116, G12D); experiment: KRAS G12D (GDP) biochemical assay, TR-FRET probe displacement; type: binding; settings: 0.5 nM enzyme, 30 min pre-incubation, 2 h incubation, TR-FRET ratio; read-out: G12D IC50
Experimental: Example A. KRAS G12D (GDP) Biochemical Assay
Compounds were tested for binding to GDP-loaded KRAS G12D in a 384-well assay format using a TR-FRET probe displacement assay in buffer consisting of 50 mM Hepes (pH 7.4), 150 mM NaCl, 5 mM MgCl2 and 0.005% Tween-20. […] Compounds were serially diluted (1:3) in DMSO. The LabCyte ECHO Acoustic dispenser system was used to pre-spot the assay plates (384-well Non-Binding Surface plates, Corning, Catalog #3824) with 50 nL of compound. The compounds were pre-incubated with 5 μL of 2× final enzyme concentration for 30 minutes before adding 5 μL of 2× final concentration of Eu-streptavidin and TR-FRET probe (10 μL final reaction volume). The plates were incubated at room temperature for 2 hours before measuring TR-FRET ratio on the Envision plate reader. IC50 values were defined as the compound concentration that causes a 50% decrease in TR-FRET ratio and were calculated using a sigmoidal dose-response model to generate curve fits.

GP2D (KRAS G12D) cells = experiment: 2D cell viability assay (CellTiter-Glo); type: cell-based; settings: 96 h; GP2D cells, 4 days, CellTiter-Glo luminescence; read-out: G12D 2D EC50
Procedure, shortened: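 GP2D (KRAS G12D) cells, 1000/well in RPMI + 10% FBS, were plated onto compound (1:3 DMSO series) and grown 4 days at 37 °C, 5% CO2 in 2D. CellTiter-Glo luminescence was read; EC50 is the concentration giving 50% signal decrease, from sigmoidal fit.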

Chain of GDP-loaded KRAS G12D (P01116 1-188 isoform P01116-2 G12D): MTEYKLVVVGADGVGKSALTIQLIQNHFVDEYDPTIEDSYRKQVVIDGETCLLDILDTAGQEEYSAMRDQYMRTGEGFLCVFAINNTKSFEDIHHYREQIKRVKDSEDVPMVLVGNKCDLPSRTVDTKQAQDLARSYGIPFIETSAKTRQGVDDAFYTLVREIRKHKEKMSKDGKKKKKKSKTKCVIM

Compound | Mouse Parent AUC [1] [µM·h] | IC50 (GDP-loaded KRAS G12D) [nM] | EC50 (GP2D (KRAS G12D) cells) [nM]
C#Cc1c(F)ccc2cc(O)cc(-c3nc4c5c(nc(OC[C@@]67CCCN6C[C@H](F)C7)nc5c3F)N3C[C@H]5CC[C@@H]([C@H]3CC[C@H]4C)N5Cc3oc(=O)oc3C)c12 [Example 11, 4-(((4R,6aR,7S,10R)-2-(8-ethynyl-7-fluoro-3-hydroxynaphthalen-1-yl)-1-fluoro-13-(((2R,7aS)-2-fluorotetrahydro-1H-pyrrolizin-7a(5H)-yl)methoxy)-4-methyl-5,6,6a,7,8,9,10,11-octahydro-4H-3,11a,12,14,15-pentaaza-7,10-methanocyclohepta[4,5]cycloocta[1,2,3-de]naphthalen-15-yl)methyl)-5-methyl-1,3-dioxol-2-one] | 0.96 | 4.4 | 0.12
C#Cc1c(F)ccc2cc(O)cc(-c3nc4c5c(nc(OC[C@@]67CCCN6C[C@H](F)C7)nc5c3F)N3C[C@H]5CC[C@H](N5)[C@H]3CC[C@H]4C)c12 [Example 11-P, 5-ethynyl-6-fluoro-4-((4R,6aR,7S,10R)-1-fluoro-13-(((2R,7aS)-2-fluorotetrahydro-1H-pyrrolizin-7a(5H)-yl)methoxy)-4-methyl-5,6,6a,7,8,9,10,11-octahydro-4H-3,11a,12,14,15-pentaaza-7,10-methanocyclohepta[4,5]cycloocta[1,2,3-de]naphthalen-2-yl)naphthalen-2-ol] | 0.14 | 0.09 | 0.09
C#Cc1c(F)ccc2cc(O)cc(-c3nc4c5c(nc(OC[C@@]67CCCN6C[C@H](F)C7)nc5c3F)N3C[C@H]5CC[C@@H]([C@H]3CC[C@H]4C)N5Cc3oc(=O)oc3C(C)(C)C)c12 [Example 12, 4-(tert-butyl)-5-(((4R,6aR,7S,10R)-2-(8-ethynyl-7-fluoro-3-hydroxynaphthalen-1-yl)-1-fluoro-13-(((2R,7aS)-2-fluorotetrahydro-1H-pyrrolizin-7a(5H)-yl)methoxy)-4-methyl-5,6,6a,7,8,9,10,11-octahydro-4H-3,11a,12,14,15-pentaaza-7,10-methanocyclohepta[4,5]cycloocta[1,2,3-de]naphthalen-15-yl)methyl)-1,3-dioxol-2-one] | 0.2 | 73 | 0.28
C#Cc1c(F)ccc2cc(O)cc(-c3nc4c5c(nc(OC[C@@]67CCCN6C[C@H](F)C7)nc5c3F)N3C[C@H]5CC[C@@H]([C@H]3CC[C@H]4C)N5Cc3oc(=O)oc3CCCCCCCC)c12 [Example 13, 4-(((4R,6aR,7S,10R)-2-(8-ethynyl-7-fluoro-3-hydroxynaphthalen-1-yl)-1-fluoro-13-(((2R,7aS)-2-fluorotetrahydro-1H-pyrrolizin-7a(5H)-yl)methoxy)-4-methyl-5,6,6a,7,8,9,10,11-octahydro-4H-3,11a,12,14,15-pentaaza-7,10-methanocyclohepta[4,5]cycloocta[1,2,3-de]naphthalen-15-yl)methyl)-5-octyl-1,3-dioxol-2-one] | 0.42 | 24 | 0.19
C#Cc1c(F)ccc2cc(O)cc(-c3nc4c5c(nc(OC[C@@]67CCCN6C[C@H](F)C7)nc5c3F)N3C[C@H]5CC[C@@H]([C@H]3CCC4)N5Cc3oc(=O)oc3CCCCCC)c12 [Example 14, 4-(((6aR,7S,10R)-2-(8-ethynyl-7-fluoro-3-hydroxynaphthalen-1-yl)-1-fluoro-13-(((2R,7aS)-2-fluorotetrahydro-1H-pyrrolizin-7a(5H)-yl)methoxy)-5,6,6a,7,8,9,10,11-octahydro-4H-3,11a,12,14,15-pentaaza-7,10-methanocyclohepta[4,5]cycloocta[1,2,3-de]naphthalen-15-yl)methyl)-5-hexyl-1,3-dioxol-2-one] | 0.94 | 7.3 | 0.14
C#Cc1c(F)ccc2cc(O)cc(-c3nc4c5c(nc(OC[C@@]67CCCN6C[C@H](F)C7)nc5c3F)N3C[C@H]5CC[C@@H]([C@H]3CCC4)N5Cc3oc(=O)oc3C3CCCCC3)c12 [Example 15, 4-cyclohexyl-5-(((6aR,7S,10R)-2-(8-ethynyl-7-fluoro-3-hydroxynaphthalen-1-yl)-1-fluoro-13-(((2R,7aS)-2-fluorotetrahydro-1H-pyrrolizin-7a(5H)-yl)methoxy)-5,6,6a,7,8,9,10,11-octahydro-4H-3,11a,12,14,15-pentaaza-7,10-methanocyclohepta[4,5]cycloocta[1,2,3-de]naphthalen-15-yl)methyl)-1,3-dioxol-2-one] | 0.25 | 7.9 | 0.2
C#Cc1c(F)ccc2cc(O)cc(-c3nc4c5c(nc(OC[C@@]67CCCN6C[C@H](F)C7)nc5c3F)N3C[C@H]5CC[C@@H]([C@H]3CC[C@H]4C)N5Cc3oc(=O)oc3CCCCCC)c12 [Example 16, 4-(((4R,6aR,7S,10R)-2-(8-ethynyl-7-fluoro-3-hydroxynaphthalen-1-yl)-1-fluoro-13-(((2R,7aS)-2-fluorotetrahydro-1H-pyrrolizin-7a(5H)-yl)methoxy)-4-methyl-5,6,6a,7,8,9,10,11-octahydro-4H-3,11a,12,14,15-pentaaza-7,10-methanocyclohepta[4,5]cycloocta[1,2,3-de]naphthalen-15-yl)methyl)-5-hexyl-1,3-dioxol-2-one] | 0.95 | 40 | 0.16
C#Cc1c(F)ccc2cc(O)cc(-c3nc4c5c(nc(OC[C@@]67CCCN6C[C@H](F)C7)nc5c3F)N3C[C@H]5CC[C@@H]([C@H]3CC[C@H]4C)N5Cc3oc(=O)oc3C3CCCCC3)c12 [Example 17, 4-cyclohexyl-5-(((4R,6aR,7S,10R)-2-(8-ethynyl-7-fluoro-3-hydroxynaphthalen-1-yl)-1-fluoro-13-(((2R,7aS)-2-fluorotetrahydro-1H-pyrrolizin-7a(5H)-yl)methoxy)-4-methyl-5,6,6a,7,8,9,10,11-octahydro-4H-3,11a,12,14,15-pentaaza-7,10-methanocyclohepta[4,5]cycloocta[1,2,3-de]naphthalen-15-yl)methyl)-1,3-dioxol-2-one] | 0.161 | 48 | 0.2
C#Cc1c(F)ccc2cc(N)cc(-c3nc4c5c(nc(OC[C@@]67CCCN6C[C@H](F)C7)nc5c3F)N3C[C@H]5CC[C@H](N5)[C@H]3CCC4)c12 [Example 69-P, 5-ethynyl-6-fluoro-4-((6aR,7S,10R)-1-fluoro-13-(((2R,7aS)-2-fluorotetrahydro-1H-pyrrolizin-7a(5H)-yl)methoxy)-5,6,6a,7,8,9,10,11-octahydro-4H-3,11a,12,14,15-pentaaza-7,10-methanocyclohepta[4,5]cycloocta[1,2,3-de]naphthalen-2-yl)naphthalen-2-amine] | 0.5 | 0.07 | 0.5
